Assay [1] relates to C. albicans laboratory strain SC5314. The assay can be described thus: C. albicans susceptibility testing (CLSI broth microdilution MIC), strain SC5314. It is filed as cell-based, Candida albicans. To be noted: RPMI 1640, 37 °C, read at 48 h; for MIC: Candida albicans, SC5314, 48 h. From the text: (§1) Each novel compound was screened against C. albicans wild-type clinical isolate CA14 and C. albicans laboratory strain SC5314 using the standardised CLSI M27-S4 broth dilution method.[28] […] This might be explained by the clog P data as the more lipophilic compounds should more readily penetrate the fungal membrane resulting in improved uptake or may relate to optimal fill of the small hydrophobic pocket leading to improved binding.
(§2) Antifungal MIC values were obtained according to the CLSI microdilution method for yeasts.[28]C. albicans strains CA14 and SC5314 were tested in triplicate. Cultures were diluted to 2.5 × 10^3 cells per mL in RPMI 1640 (Sigma), buffered with 0.165 M MOPS, pH 7.0. Antifungal compounds were dissolved in DMSO and added at a final concentration of 1% v/v DMSO. Plates were incubated at 37 °C and read at 48 h.

The subject of assay [2] is C. albicans wild-type clinical isolate CA14. The assay can be described thus: C. albicans susceptibility testing (CLSI broth microdilution MIC), strain CA14. It is filed as cell-based, Candida albicans. To be noted: RPMI 1640, 37 °C, read at 48 h; for MIC: Candida albicans.
Text: as §1, §2
Background: Broth dilution looks for growth in wells or tubes with falling amounts of substance.

In another assay the target is T1, native CaCYP51 (Candida albicans, UniProt P10613).
T1 construct: made in house; host or cells: E. coli
The assay can be described thus: CaCYP51 type II ligand binding affinity (Kd) from difference spectra saturation curves. Conditions: 2.5 μM native CaCYP51; mean ± SD of three titrations; read-out: K d. As to the method:
Azole titration was performed in triplicate.
The ligand–CaCYP51 complex was determined by non-linear regression (Levenberg–Marquardt algorithm) using a rearrangement of the Morrison equation for tight ligand binding,[38] while weak ligand binding was calculated by the Michaelis–Menten equation. Curve fitting for novel azole saturation curves was performed using the computer program ProFit 6.1.12 (QuantumSoft, Zurich, Switzerland) for Mac OSX. Kd values were determined for each of the three replicate titrations per azole compound and then mean Kd values and standard deviations calculated.

The target in assay [3] is T2, C. albicans CYP51 (CaCYP51) (Candida albicans, UniProt P10613).
T2 construct: made in house; host or cells: E. coli
The assay can be described thus: CaCYP51 reconstitution assay (IC50). It is filed as biochemical. Conditions: 1 μM CaCYP51, 60 μM lanosterol, 15 min at 37 °C. As for the experimental part:
Derivatives with a MIC <1 μg mL^−1 were chosen for IC50 testing.
C. albicans CYP51 was overexpressed in E. coli and purified and CaCYP51 reconstitutions assays performed.[10,37] The final reaction volume of 500 μL, contained; 1 μM C. albicans CYP51, 2 μM Homo sapiens cytochrome P450 reductase (CPR) (UniProtKB accession number P16435), 60 μM lanosterol, 50 μM dilaurylphosphatidylcholine, 4% w/v 2-hydroypropyl-cyclodextrin, 0.4 mg mL^−1 isocitrate dehydrogenase, 25 mM trisodium isocitrate, 50 mM NaCl, 5 mM MgCl2, and 40 mM MOPS (morpholinepropanesulfonic acid, pH 7.2). Antifungal compounds were added in 2.5 μL DMSO. The reaction was started by the addition of 4 mM NADPH-tetrasodium salt. Samples were shaken for 15 min at 37 °C and sterol metabolites extracted with ethyl acetate and derivatised with BSTFA.

≈ marks a conversion by molar mass, not a printed value. Where only a bound is given, the exact number is not on record here.

T1 sequence (P10613 whole entry): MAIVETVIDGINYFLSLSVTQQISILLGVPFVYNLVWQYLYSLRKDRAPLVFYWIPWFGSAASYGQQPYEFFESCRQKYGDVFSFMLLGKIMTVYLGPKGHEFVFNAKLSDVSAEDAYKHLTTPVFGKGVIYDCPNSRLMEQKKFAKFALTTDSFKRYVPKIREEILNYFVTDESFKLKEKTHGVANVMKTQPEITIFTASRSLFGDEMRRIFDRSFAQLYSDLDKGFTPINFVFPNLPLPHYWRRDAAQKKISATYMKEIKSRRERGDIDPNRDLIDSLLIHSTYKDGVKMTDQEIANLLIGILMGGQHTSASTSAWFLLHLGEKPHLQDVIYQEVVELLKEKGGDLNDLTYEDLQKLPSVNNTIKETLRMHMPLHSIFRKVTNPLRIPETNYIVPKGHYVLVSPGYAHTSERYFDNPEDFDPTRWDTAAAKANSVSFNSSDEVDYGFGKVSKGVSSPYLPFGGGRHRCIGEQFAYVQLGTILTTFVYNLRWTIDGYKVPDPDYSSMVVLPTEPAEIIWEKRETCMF
T2 sequence (P10613 whole entry): as above

In the case of `CC(=O)c1cccc(C(=O)NCC(O)(Cn2cncn2)c2ccc(Cl)cc2)c1` (centres unmarked) [6a, 3-Acetyl-N-(2-(4-chlorophenyl)-2-hydroxy-3-(1H-1,2,4-triazol-1-yl)propyl)benzamide], the MIC in assay [1] and in assay [2] was 0.25 µg/mL (≈ 0.627 µM) in each case. Besides, the Kd on native CaCYP51 is 1440 ± 266 nM. Half-maximal inhibition in assay [3] (IC50) was put at 1300 nM.

For `CC(=O)c1cccc(C(=O)NCC(O)(Cn2cncn2)c2ccc(Cl)cc2Cl)c1` (centres unmarked) [6b, 3-Acetyl-N-(2-(2,4-dichlorophenyl)-2-hydroxy-3-(1H-1,2,4-triazol-1yl)propyl)benzamide], in assay [1], the MIC – broadly, the lowest concentration that inhibits growth of the organism – is less than 0.03 µg/mL and the “MIC SC5314” value is 0.06 µg/mL (≈ 0.138 µM). In assay [2], the MIC was less than 0.03 µg/mL and the “MIC CA14” value was less than 0.03 µg/mL. Further, at native CaCYP51, the Kd was found to be 229 ± 45 nM. In addition, the IC50 (commonly the concentration needed to halve the response being measured) in assay [3] was found to be 490 nM.

As for `O=C(NCC(O)(Cn1cncn1)c1ccc(Cl)cc1)c1csc(Cl)n1` (centres unmarked) [7a, 2-Chloro-N-(2-(4-chlorophenyl)-2-hydroxy-3-(1H-1,2,4-triazol-1-yl)propyl)thiazole-4-carboxamide], the MIC in assay [1] and in assay [2] was 0.25 µg/mL (≈ 0.628 µM) in each case. Also, the Kd at native CaCYP51 came to 635 ± 181 nM. It took 770 nM to reach half-maximal inhibition in assay [3] (IC50).

In the case of `O=C(NCC(O)(Cn1cncn1)c1ccc(Cl)cc1)c1ccc(NC(=S)Nc2ccc(Cl)cc2)cc1` (centres unmarked) [11a, N-(2-(4-Chlorophenyl)-2-hydroxy-3-(1H-1,2,4-triazol-1-yl)propyl)-4-(3-(4-chlorophenyl)thioureido)benzamide], the MIC in assay [1] and in assay [2] was 4 µg/mL (≈ 7.39 µM) throughout.

In the case of `O=C(NCC(O)(Cn1cncn1)c1ccc(Cl)cc1Cl)c1ccc(NC(=S)Nc2ccc(Cl)cc2)cc1` (centres unmarked) [11b, 4-(3-(4-Chlorophenyl)thioureido)-N-(2-(2,4-dichlorophenyl)-2-hydroxy-3-(1H-1,2,4-triazol-1-yl)propyl)benzamide], the figures for the MIC in assay [1] and in assay [2] were 0.5 µg/mL (≈ 0.868 µM) and 0.25 µg/mL (≈ 0.434 µM), respectively. In addition, the Kd on native CaCYP51 came out at 125 ± 41 nM. This compound also yielded an IC50 in assay [3] of 670 nM.

As for `O=C(Nc1ccc(Cl)cc1)Nc1ccc(C(=O)NCC(O)(Cn2cncn2)c2ccc(Cl)cc2)cc1` (centres unmarked) [12a, N-(2-(4-Chlorophenyl)-2-hydroxy-3-(1H-1,2,4-triazol-1-yl)propyl)-4-(3-(4-chlorophenyl)ureido)benzamide], the MIC in assay [1] came to 2 µg/mL (≈ 3.81 µM); in assay [2], 1 µg/mL (≈ 1.9 µM).

Take `O=C(Nc1ccc(Cl)cc1)Nc1ccc(C(=O)NCC(O)(Cn2cncn2)c2ccc(Cl)cc2Cl)cc1` (centres unmarked) [12b, 4-(3-(4-Chlorophenyl)ureido)-N-(2-(2,4-dichlorophenyl)-2-hydroxy-3-(1H-1,2,4-triazol-1-yl)propyl)benzamide]: the MIC in assay [1] and in assay [2] was 0.125 µg/mL (≈ 0.223 µM) each time. On native CaCYP51, the Kd came to 137 ± 14 nM. This compound registered an IC50 in assay [3] of 470 nM.

On to `O=C(NCC(O)(Cn1cncn1)c1ccc(Cl)cc1)c1ccc(NS(=O)(=O)c2ccc(Cl)cc2)cc1` (centres unmarked) [14a, N-(2-(4-Chlorophenyl)-2-hydroxy-3-(1H-1,2,4-triazol-1-yl)propyl)-4-((4-chlorophenyl)sulfonamido)benzamide], for which the MIC in assay [1] and in assay [2] was 1 µg/mL (≈ 1.83 µM) each time.

For `O=C(NCC(O)(Cn1cncn1)c1ccc(Cl)cc1Cl)c1ccc(NS(=O)(=O)c2ccc(Cl)cc2)cc1` (centres unmarked) [14b, 4-((4-Chlorophenyl)sulfonamido)-N-(2-(2,4-dichlorophenyl)-2-hydroxy-3-(1H-1,2,4-triazol-1-yl)propyl)benzamide], the minimum inhibitory concentration (MIC) in assay [1] and in assay [2] was 0.25 µg/mL (≈ 0.43 µM) throughout. Further, the Kd on native CaCYP51 worked out at 94 ± 24 nM. For the same compound, the IC50 in assay [3] came to 780 nM.

For the origin of these results see paper PMC11931565, “Exploring medium and long arm extensions of 1,2,4-triazole derivatives as Candida albicans 14α-demethylase (CYP51) inhibitors” (RSC Medicinal Chemistry, 2025).
